Data taken from article PMC10556057, “The proton channel OTOP1 is a sensor for the taste of ammonium chloride” (Nature Communications, 2023).
pEC50: −log10 of the molar value.

Molecular target: T1, mOTOP1 (Mus musculus, UniProt Q80VM9)
T1 construct: gene Otop1; full length in HEK-293 / PAC-KO cells; homodimer
T1 sequence (Q80VM9 1-600): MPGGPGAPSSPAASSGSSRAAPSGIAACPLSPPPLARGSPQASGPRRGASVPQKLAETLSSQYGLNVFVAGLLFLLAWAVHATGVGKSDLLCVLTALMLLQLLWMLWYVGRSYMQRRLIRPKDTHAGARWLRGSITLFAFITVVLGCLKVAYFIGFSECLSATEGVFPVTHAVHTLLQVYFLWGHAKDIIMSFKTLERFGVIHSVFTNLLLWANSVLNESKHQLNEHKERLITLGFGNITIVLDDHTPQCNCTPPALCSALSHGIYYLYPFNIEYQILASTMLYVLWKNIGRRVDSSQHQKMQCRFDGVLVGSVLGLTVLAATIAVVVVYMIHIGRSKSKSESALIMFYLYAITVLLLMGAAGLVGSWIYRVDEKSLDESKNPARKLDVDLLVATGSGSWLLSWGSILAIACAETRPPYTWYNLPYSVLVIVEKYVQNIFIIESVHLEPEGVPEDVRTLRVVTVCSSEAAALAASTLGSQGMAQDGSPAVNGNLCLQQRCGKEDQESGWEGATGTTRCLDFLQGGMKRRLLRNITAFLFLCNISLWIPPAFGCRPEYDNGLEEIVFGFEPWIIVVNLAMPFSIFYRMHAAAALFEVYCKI
Experiment: whole-cell patch clamp, inward current in HEK-293
Format: cell-based

pEC50: 1.73
SMILES: N [NH4Cl]
